As a reminder, the EC50 is the concentration needed to bring the measured effect to its halfway point. Low readings indicate an effect from little substance, high ones a need for much substance.

5 molecules from US20140213513A1 (Sanofi, priority 2012, published 2014) can be followed below.

Holding throughout (type): cell-based
Common to all, as to conditions: Table 7; cAMP formation
For orientation: cAMP levels reflect the balance of adenylyl cyclase and phosphodiesterase activity.

Assay [1] deals with T1, human GLP-1 receptor (hGLP-1 R) (Homo sapiens, UniProt P43220).
T1 construct: expressed in transfected cells
T1 sequence (P43220 24-463): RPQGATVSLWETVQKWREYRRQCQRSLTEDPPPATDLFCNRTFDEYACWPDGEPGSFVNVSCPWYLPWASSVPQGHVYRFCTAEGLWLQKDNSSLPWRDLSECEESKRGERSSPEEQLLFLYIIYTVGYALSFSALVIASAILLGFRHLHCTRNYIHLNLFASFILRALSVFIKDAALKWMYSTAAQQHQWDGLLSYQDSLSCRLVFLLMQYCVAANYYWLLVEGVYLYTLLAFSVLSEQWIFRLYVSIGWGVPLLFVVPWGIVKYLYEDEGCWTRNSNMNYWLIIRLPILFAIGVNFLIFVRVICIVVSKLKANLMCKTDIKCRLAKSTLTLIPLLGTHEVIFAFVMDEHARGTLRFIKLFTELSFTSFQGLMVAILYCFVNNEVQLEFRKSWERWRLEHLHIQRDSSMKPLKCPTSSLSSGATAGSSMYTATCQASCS
As to the kind of experiment: cAMP response of HEK-293 cells stably expressing human GLP-1 receptor (HTRF). On the procedure:
(§1) cAMP content of cells was determined using a kit from Cisbio Corp. (cat. no. 62AM4PEC) based on HTRF (Homogenous Time Resolved Fluorescence). For preparation, cells were split into T175 culture flasks and grown overnight to near confluency in medium (DMEM/10% FBS). Medium was then removed and cells washed with PBS lacking calcium and magnesium, followed by proteinase treatment with accutase (Sigma-Aldrich cat. no. A6964). Detached cells were washed and resuspended in assay buffer (1×HBSS; 20 mM HEPES, 0.1% BSA, 2 mM IBMX) and cellular density determined. They were then diluted to 400000 cells/ml and 25 μl-aliquots dispensed into the wells of 96-well plates. For measurement, 25 μl of test compound in assay buffer was added to the wells, followed by incubation for 30 minutes at room temperature.
In general terms: TR-FRET usually uses a lanthanide donor and a delayed reading to cut background.

The target in assay [2] is T2, human GIP receptor (hGIP R) (Homo sapiens, UniProt P48546).
T2 construct: expressed in transfected cells
T2 sequence (P48546 22-466): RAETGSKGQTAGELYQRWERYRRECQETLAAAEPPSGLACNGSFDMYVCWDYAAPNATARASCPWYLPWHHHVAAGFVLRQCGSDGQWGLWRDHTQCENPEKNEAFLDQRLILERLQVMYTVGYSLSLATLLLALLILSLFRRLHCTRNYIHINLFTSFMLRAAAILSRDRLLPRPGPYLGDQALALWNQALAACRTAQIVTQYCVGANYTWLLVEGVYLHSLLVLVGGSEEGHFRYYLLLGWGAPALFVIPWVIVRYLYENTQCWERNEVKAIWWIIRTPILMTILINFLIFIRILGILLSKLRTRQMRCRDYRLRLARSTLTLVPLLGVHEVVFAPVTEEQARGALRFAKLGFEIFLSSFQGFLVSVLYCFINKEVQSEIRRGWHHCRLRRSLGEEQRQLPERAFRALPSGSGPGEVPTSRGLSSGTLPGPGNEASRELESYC
The experiment in a line: cAMP response of HEK-293 cells stably expressing human GIP receptor (HTRF). On the procedure:
as §1

Assay [3] concerns the target T3, human glucagon receptor (hGLUC R) (Homo sapiens, UniProt P47871).
T3 construct: expressed in transfected cells
The experiment in a line: cAMP response of HEK-293 cells stably expressing human glucagon receptor (HTRF). As to the method: as §1

*1 amine or outer side, *2 acyl side, *3 side chain or, on linkers, in order; H or OH if unused. Where a SMILES comes first, the peptide text is derived from it. Side-chain parts run from the residue outwards. [ ]: non-standard residue; d: D form. The star is where a group is joined. γGlu = O=C(O)[C@H](CCC(=O)[*:2])N[*:1]; Stearoyl = CCCCCCCCCCCCCCCCCC(=O)*; Palmitoyl = CCCCCCCCCCCCCCCC(=O)*; Aib = CC(C)(N)C(=O)O

T3 sequence (P47871 26-477): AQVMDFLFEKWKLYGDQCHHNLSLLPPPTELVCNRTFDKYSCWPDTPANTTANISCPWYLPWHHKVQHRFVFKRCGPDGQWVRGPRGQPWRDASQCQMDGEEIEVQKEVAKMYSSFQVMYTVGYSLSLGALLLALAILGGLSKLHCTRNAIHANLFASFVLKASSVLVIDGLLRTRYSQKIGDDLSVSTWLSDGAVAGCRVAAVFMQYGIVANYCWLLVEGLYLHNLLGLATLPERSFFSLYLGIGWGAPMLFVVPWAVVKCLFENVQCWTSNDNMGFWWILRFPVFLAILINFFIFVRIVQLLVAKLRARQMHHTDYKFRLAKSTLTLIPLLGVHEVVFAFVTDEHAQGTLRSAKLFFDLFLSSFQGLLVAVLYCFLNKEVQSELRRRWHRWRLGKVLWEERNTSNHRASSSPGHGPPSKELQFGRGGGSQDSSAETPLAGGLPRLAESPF

Turning to `CCCCCCCCCCCCCCCC(=O)N[C@@H](CCC(=O)NCCCC[C@H](NC(=O)[C@H](CCC(N)=O)NC(=O)[C@@H](NC(=O)[C@H](CO)NC(=O)[C@H](CC(C)C)NC(=O)[C@H](CC(=O)O)NC(=O)[C@H](CO)NC(=O)[C@@H](NC(=O)[C@H](Cc1ccccc1)NC(=O)[C@@H](NC(=O)CNC(=O)[C@H](CCC(N)=O)NC(=O)C(C)(C)NC(=O)[C@@H](N)Cc1ccc(O)cc1)[C@@H](C)O)[C@@H](C)O)[C@@H](C)CC)C(=O)N[C@@H](CCC(=O)O)C(=O)N[C@@H](CCCCN)C(=O)N[C@@H](Cc1ccc(O)cc1)C(=O)N[C@@H](C)C(=O)N[C@@H](C)C(=O)NC(C)(C)C(=O)N[C@@H](CCC(=O)O)C(=O)N[C@@H](Cc1ccccc1)C(=O)N[C@H](C(=O)N[C@@H](CCC(=O)O)C(=O)N[C@@H](Cc1c[nH]c2ccccc12)C(=O)N[C@@H](CC(C)C)C(=O)N[C@@H](CCCCN)C(=O)N[C@@H](CC(N)=O)C(=O)N[C@H](C(=O)NCC(=O)N1CCC[C@H]1C(=O)N[C@@H](CO)C(=O)N[C@@H](CO)C(=O)NCC(=O)N[C@@H](C)C(=O)N1CCC[C@H]1C(=O)N1CCC[C@H]1C(=O)N1CCC[C@H]1C(=O)N[C@@H](CO)C(N)=O)[C@@H](C)O)[C@@H](C)CC)C(=O)O` [SEQ ID NO: 10, Y-Aib-Q-G-T-F-T-S-D-L-S-I-Q-K(yE-x53)-E-K-Y-A-A-Aib-E-F-I-E-W-L-K-N-T-G-P-S-S-G-A-P-P-P-S-NH2] (H-Y[Aib]QGTFTSDLSIQK([γGlu-Palmitoyl])EKYAA[Aib]EFIEWLKNTGPSSGAPPPS-NH2), the EC50 stood at 0.0052 nM in assay [1], 0.0144 nM in assay [2] and 0.667 nM in assay [3].

As for `CCCCCCCCCCCCCCCC(=O)NCCCC[C@H](NC(=O)[C@H](CCC(N)=O)NC(=O)[C@@H](NC(=O)[C@H](CO)NC(=O)[C@H](CC(C)C)NC(=O)[C@H](CC(=O)O)NC(=O)[C@H](CO)NC(=O)[C@@H](NC(=O)[C@H](Cc1ccccc1)NC(=O)[C@@H](NC(=O)CNC(=O)[C@H](CCC(N)=O)NC(=O)C(C)(C)NC(=O)[C@@H](N)Cc1ccc(O)cc1)[C@@H](C)O)[C@@H](C)O)[C@@H](C)CC)C(=O)N[C@@H](CCC(=O)O)C(=O)N[C@@H](CCC(N)=O)C(=O)N[C@@H](CCCNC(=N)N)C(=O)N[C@@H](C)C(=O)N[C@@H](C)C(=O)NC(C)(C)C(=O)N[C@@H](CCC(=O)O)C(=O)N[C@@H](Cc1ccccc1)C(=O)N[C@H](C(=O)N[C@@H](CCC(=O)O)C(=O)N[C@@H](Cc1c[nH]c2ccccc12)C(=O)N[C@@H](CC(C)C)C(=O)N[C@@H](CCCCN)C(=O)N[C@@H](CC(N)=O)C(=O)N[C@H](C(=O)NCC(=O)N1CCC[C@H]1C(=O)N[C@@H](CO)C(=O)N[C@@H](CO)C(=O)NCC(=O)N[C@@H](C)C(=O)N1CCC[C@H]1C(=O)N1CCC[C@H]1C(=O)N1CCC[C@H]1C(=O)N[C@@H](CO)C(N)=O)[C@@H](C)O)[C@@H](C)CC` [SEQ ID NO: 21, Y-Aib-Q-G-T-F-T-S-D-L-S-I-Q-K(x53)-E-Q-R-A-A-Aib-E-F-I-E-W-L-K-N-T-G-P-S-S-G-A-P-P-P-S-NH2] (H-Y[Aib]QGTFTSDLSIQK(Palmitoyl)EQRAA[Aib]EFIEWLKNTGPSSGAPPPS-NH2), the EC50 was found to be 0.037 nM in assay [1], 0.189 nM in assay [2] and 0.674 nM in assay [3].

Consider `CCCCCCCCCCCCCCCC(=O)N[C@@H](CCC(=O)NCCCC[C@H](NC(=O)[C@H](CCC(N)=O)NC(=O)[C@@H](NC(=O)[C@H](CO)NC(=O)[C@H](CC(C)C)NC(=O)[C@H](CC(=O)O)NC(=O)[C@H](CO)NC(=O)[C@@H](NC(=O)[C@H](Cc1ccccc1)NC(=O)[C@@H](NC(=O)CNC(=O)[C@H](CCC(N)=O)NC(=O)C(C)(C)NC(=O)[C@@H](N)Cc1ccc(O)cc1)[C@@H](C)O)[C@@H](C)O)[C@@H](C)CC)C(=O)N[C@@H](CC(=O)O)C(=O)N[C@@H](CCC(=O)O)C(=O)N[C@@H](CCCNC(=N)N)C(=O)N[C@@H](C)C(=O)N[C@@H](C)C(=O)N[C@@H](CCCCN)C(=O)N[C@@H](CC(=O)O)C(=O)N[C@@H](Cc1ccccc1)C(=O)N[C@H](C(=O)N[C@@H](CCC(=O)O)C(=O)N[C@@H](Cc1c[nH]c2ccccc12)C(=O)N[C@@H](CC(C)C)C(=O)N[C@@H](CCCCN)C(=O)N[C@@H](C)C(=O)NCC(=O)NCC(=O)N1CCC[C@H]1C(=O)N[C@@H](CO)C(=O)N[C@@H](CO)C(=O)NCC(=O)N[C@@H](C)C(=O)N1CCC[C@H]1C(=O)N1CCC[C@H]1C(=O)N1CCC[C@H]1C(=O)N[C@@H](CO)C(N)=O)[C@@H](C)CC)C(=O)O` [SEQ ID NO: 35, Y-Aib-Q-G-T-F-T-S-D-L-S-I-Q-K(yE-x53)-DERAAKDFIEWLKAGGPSSGAPPPS-NH2] (H-Y[Aib]QGTFTSDLSIQK([γGlu-Palmitoyl])DERAAKDFIEWLKAGGPSSGAPPPS-NH2), for which the results for the EC50 in assay [1], in assay [2] and in assay [3] were 0.0035 nM, 0.0182 nM and 0.123 nM, respectively.

Regarding `CCCCCCCCCCCCCCCC(=O)N[C@@H](CCC(=O)NCCCC[C@H](NC(=O)[C@H](CCC(N)=O)NC(=O)[C@@H](NC(=O)[C@H](CO)NC(=O)[C@H](CC(C)C)NC(=O)[C@H](CC(=O)O)NC(=O)[C@H](CO)NC(=O)[C@@H](NC(=O)[C@H](Cc1ccccc1)NC(=O)[C@@H](NC(=O)CNC(=O)[C@H](CCC(N)=O)NC(=O)C(C)(C)NC(=O)[C@@H](N)Cc1ccc(O)cc1)[C@@H](C)O)[C@@H](C)O)[C@@H](C)CC)C(=O)N[C@@H](CC(=O)O)C(=O)N[C@@H](CO)C(=O)N[C@H](C(=O)N[C@@H](C)C(=O)N[C@@H](C)C(=O)N[C@@H](CCC(N)=O)C(=O)N[C@@H](CC(=O)O)C(=O)N[C@@H](Cc1ccccc1)C(=O)N[C@H](C(=O)N[C@@H](CCC(=O)O)C(=O)N[C@@H](Cc1c[nH]c2ccccc12)C(=O)N[C@@H](CC(C)C)C(=O)N[C@@H](CCCCN)C(=O)N[C@@H](C)C(=O)NCC(=O)NCC(=O)N1CCC[C@H]1C(=O)N[C@@H](CO)C(=O)N[C@@H](CO)C(=O)NCC(=O)N[C@@H](C)C(=O)N1CCC[C@H]1C(=O)N1CCC[C@H]1C(=O)N1CCC[C@H]1C(=O)N[C@@H](CO)C(N)=O)[C@@H](C)CC)[C@@H](C)CC)C(=O)O` [SEQ ID NO: 49, Y-Aib-Q-G-T-F-T-S-D-L-S-I-Q-K(yE-x53)-DSIAAQDFIEWLKAGGPSSGAPPPS-NH2] (H-Y[Aib]QGTFTSDLSIQK([γGlu-Palmitoyl])DSIAAQDFIEWLKAGGPSSGAPPPS-NH2), the EC50 in assay [1] is 0.0172 nM; in assay [2], 0.0456 nM; in assay [3], 0.195 nM.

For `CCCCCCCCCCCCCCCCCC(=O)N[C@@H](CCC(=O)NCCCC[C@H](NC(=O)[C@H](CCC(N)=O)NC(=O)[C@H](CCCCN)NC(=O)[C@H](CO)NC(=O)[C@H](CC(C)C)NC(=O)[C@H](CC(=O)O)NC(=O)[C@H](CO)NC(=O)[C@@H](NC(=O)[C@H](Cc1ccccc1)NC(=O)[C@@H](NC(=O)CNC(=O)[C@H](CCC(N)=O)NC(=O)C(C)(C)NC(=O)[C@@H](N)Cc1ccc(O)cc1)[C@@H](C)O)[C@@H](C)O)C(=O)N[C@@H](CC(=O)O)C(=O)N[C@@H](CO)C(=O)N[C@@H](CCCCN)C(=O)N[C@@H](C)C(=O)N[C@@H](C)C(=O)N[C@@H](CCC(N)=O)C(=O)N[C@@H](CC(=O)O)C(=O)N[C@@H](Cc1ccccc1)C(=O)N[C@H](C(=O)N[C@@H](CCC(=O)O)C(=O)N[C@@H](Cc1c[nH]c2ccccc12)C(=O)N[C@@H](CC(C)C)C(=O)N[C@@H](CCCCN)C(=O)N[C@@H](C)C(=O)NCC(=O)NCC(=O)N1CCC[C@H]1C(=O)N[C@@H](CO)C(=O)N[C@@H](CO)C(=O)NCC(=O)N[C@@H](C)C(=O)N1CCC[C@H]1C(=O)N1CCC[C@H]1C(=O)N1CCC[C@H]1C(=O)N[C@@H](CO)C(N)=O)[C@@H](C)CC)C(=O)O` [SEQ ID NO: 41, Y-Aib-Q-G-T-F-T-S-D-L-S-K-Q-K(yE-x70)-DSKAAQDFIEWLKAGGPSSGAPPPS-NH2] (H-Y[Aib]QGTFTSDLSKQK([γGlu-Stearoyl])DSKAAQDFIEWLKAGGPSSGAPPPS-NH2), the EC50 in assay [1] worked out at 0.0241 nM; in assay [2] it was 0.186 nM; in assay [3] it was 0.0265 nM.
